Experimental data reported in patent US20160367623A1, “AGONISTS OF GUANYLATE CYCLASE USEFUL FOR THE TREATMENT OF GASTROINTESTINAL DISORDERS, INFLAMMATION, CANCER AND OTHER DISORDERS” (priority 2015, published 2016).
Bridge positions count the residues as written; N and C are the ends. Ends that are not written are not given here.

Test system: patients with chronic idiopathic constipation (CIC)
Test: Second phase 3 CIC trial: CSBM weekly responders by week
Assay type: in vivo, human
Conditions: MRA
From the text: Both trials include a two-week pre-treatment baseline period, a 12-week treatment period, and a two-week post-treatment period. The phase 3 CIC program was designed to support regulatory submission in the U. S.
The primary endpoint for both trials is the proportion of durable overall responders (%), which is the current regulatory endpoint required for U.S. approval in CIC. The FDA has defined a durable overall responder as a patient who fulfills both ≧3 complete spontaneous bowel movements (CSBMs) per week plus an increase of ≧1 CSBM from baseline in the same week, for 9 out of the 12 treatment weeks. In addition, the same patient must be an overall responder for at least 3 of the last 4 treatment weeks in order to be considered a durable overall responder.
Patients were selected using Rome 3 criteria modified for CIC and had (1) fewer than 3 defecations per week, (2) loose stools occurring rarely without laxatives, (3) inadequate criteria for irritable bowel syndrome with constipation (IBS-C), and (4) at least two of the following applied to at least 25% of defecations: (a) straining during evacuation, (b) lumpy or hard stools, (c) sensation of anorectal obstruction or blockage. Rome 3 requires patients to fulfill the criteria for the last 3 months with symptom onset at least 6 months prior to diagnosis.

[1] = Week 9, Active Combined, ITT Population-Excluding Duplicate Patients
[2] = Week 9, Active Combined, ITT Population
[3] = Week 10, 3 mg, ITT Population-Excluding Duplicate Patients
[4] = Week 10, 6 mg, ITT Population-Excluding Duplicate Patients
[5] = Week 10, Active Combined, ITT Population-Excluding Duplicate Patients
[6] = Week 10, Active Combined, ITT Population
[7] = Week 11, 3 mg, All Randomized (includes Duplicate Patients)
[8] = Week 11, 3 mg, ITT Population-Excluding Duplicate Patients
[9] = Week 11, 6 mg, All Randomized (includes Duplicate Patients)
[10] = Week 11, 6 mg, ITT Population-Excluding Duplicate Patients
[11] = Week 11, Active Combined, All Randomized (includes Duplicate Patients)
[12] = Week 11, Active Combined, ITT Population-Excluding Duplicate Patients
[13] = Week 11, Active Combined, ITT Population
[14] = Week 12, 3 mg, All Randomized (includes Duplicate Patients)
[15] = Week 12, 3 mg, ITT Population-Excluding Duplicate Patients
[16] = Week 12, 6 mg, All Randomized (includes Duplicate Patients)
[17] = Week 12, 6 mg, ITT Population-Excluding Duplicate Patients
[18] = Week 12, Active Combined, All Randomized (includes Duplicate Patients)
[19] = Week 12, Active Combined, ITT Population-Excluding Duplicate Patients
[20] = Week 12, Active Combined, ITT Population

Asn^1-Asp^2-Glu^3-Cys^4-Glu^5-Leu^6-Cys^7-Val^8-Asn^9-Val^10-Ala^11-Cys^12-Thr^13-Gly^14-Cys^15-Leu^16 (NDECELCVNVACTGCL; disulfide 4-12, 7-15) [Plecanatide, uroguanylin analogue, guanylate cyclase-C agonist; (C4:C12, C7:C15) bicycle peptide]
Odds Ratio (adjusted) (Week 9, 6 mg vs placebo, ITT Population): 0.727 | CSBM Weekly Responders, n (%) [1]: 286 (32.6) n (%) | Non-Responders, n (%) [1]: 591 (67.4) n (%) | CSBM Weekly Responders, n (%) [2]: 288 (32.3) n (%) | Non-Responders, n (%) [2]: 604 (67.7) n (%) | Difference in Proportions (adjusted) (Week 10, 3 mg minus placebo, All Randomized (includes Duplicate Patients)): 0.067 | Odds Ratio (adjusted) (Week 10, 3 mg vs placebo, All Randomized (includes Duplicate Patients)): 0.708 | Non-Responders, n (%) (Week 10, 3 mg, All Randomized (includes Duplicate Patients)): 328 (69.8) n (%) | CSBM Weekly Responders, n (%) (Week 10, 3 mg, ITT Population): 137 (30.9) n (%) | Non-Responders, n (%) (Week 10, 3 mg, ITT Population): 306 (69.1) n (%) | CSBM Weekly Responders, n (%) [3]: 136 (31.3) n (%) | Non-Responders, n (%) [3]: 298 (68.7) n (%) | Difference in Proportions (adjusted) (Week 10, 6 mg minus placebo, All Randomized (includes Duplicate Patients)): 0.097 | Odds Ratio (adjusted) (Week 10, 6 mg vs placebo, All Randomized (includes Duplicate Patients)): 0.619 | Non-Responders, n (%) (Week 10, 6 mg, All Randomized (includes Duplicate Patients)): 315 (66.9) n (%) | CSBM Weekly Responders, n (%) (Week 10, 6 mg, ITT Population): 154 (34.3) n (%) | Non-Responders, n (%) (Week 10, 6 mg, ITT Population): 295 (65.7) n (%) | CSBM Weekly Responders, n (%) [4]: 153 (34.5) n (%) | Non-Responders, n (%) [4]: 290 (65.5) n (%) | Non-Responders, n (%) (Week 10, Active Combined, All Randomized (includes Duplicate Patients)): 643 (68.3) n (%) | Difference in Proportions (adjusted) (Week 10, 3 mg minus placebo, ITT Population-Excluding Duplicate Patients): 0.064 | Difference in Proportions (adjusted) (Week 10, 3 mg minus placebo, ITT Population): 0.062 | Odds Ratio (adjusted) (Week 10, 3 mg vs placebo, ITT Population-Excluding Duplicate Patients): 0.729 | Odds Ratio (adjusted) (Week 10, 3 mg vs placebo, ITT Population): 0.734 | Difference in Proportions (adjusted) (Week 10, 6 mg minus placebo, ITT Population-Excluding Duplicate Patients): 0.096 | Difference in Proportions (adjusted) (Week 10, 6 mg minus placebo, ITT Population): 0.096 | Odds Ratio (adjusted) (Week 10, 6 mg vs placebo, ITT Population-Excluding Duplicate Patients): 0.630 | Odds Ratio (adjusted) (Week 10, 6 mg vs placebo, ITT Population): 0.629 | CSBM Weekly Responders, n (%) [5]: 289 (33.0) n (%) | Non-Responders, n (%) [5]: 588 (67.0) n (%) | CSBM Weekly Responders, n (%) [6]: 291 (32.6) n (%) | Non-Responders, n (%) [6]: 601 (67.4) n (%) | Difference in Proportions (adjusted) (Week 11, 3 mg minus placebo, All Randomized (includes Duplicate Patients)): 0.089 | Odds Ratio (adjusted) (Week 11, 3 mg vs placebo, All Randomized (includes Duplicate Patients)): 0.643 | CSBM Weekly Responders, n (%) [7]: 153 (32.6) n (%) | Non-Responders, n (%) [7]: 317 (67.4) n (%) | CSBM Weekly Responders, n (%) (Week 11, 3 mg, ITT Population): 147 (33.2) n (%) | Non-Responders, n (%) (Week 11, 3 mg, ITT Population): 296 (66.8) n (%) | CSBM Weekly Responders, n (%) [8]: 147 (33.9) n (%) | Non-Responders, n (%) [8]: 287 (66.1) n (%) | Difference in Proportions (adjusted) (Week 11, 6 mg minus placebo, All Randomized (includes Duplicate Patients)): 0.082 | Odds Ratio (adjusted) (Week 11, 6 mg vs placebo, All Randomized (includes Duplicate Patients)): 0.664 | CSBM Weekly Responders, n (%) [9]: 150 (31.8) n (%) | Non-Responders, n (%) [9]: 321 (68.2) n (%) | CSBM Weekly Responders, n (%) (Week 11, 6 mg, ITT Population): 145 (32.3) n (%) | Non-Responders, n (%) (Week 11, 6 mg, ITT Population): 304 (67.7) n (%) | CSBM Weekly Responders, n (%) [10]: 144 (32.5) n (%) | Non-Responders, n (%) [10]: 299 (67.5) n (%) | CSBM Weekly Responders, n (%) [11]: 303 (32.2) n (%) | Non-Responders, n (%) [11]: 638 (67.8) n (%) | Difference in Proportions (adjusted) (Week 11, 3 mg minus placebo, ITT Population-Excluding Duplicate Patients): 0.089 | Difference in Proportions (adjusted) (Week 11, 3 mg minus placebo, ITT Population): 0.086 | Odds Ratio (adjusted) (Week 11, 3 mg vs placebo, ITT Population-Excluding Duplicate Patients): 0.649 | Odds Ratio (adjusted) (Week 11, 3 mg vs placebo, ITT Population): 0.654 | Difference in Proportions (adjusted) (Week 11, 6 mg minus placebo, ITT Population-Excluding Duplicate Patients): 0.076 | Difference in Proportions (adjusted) (Week 11, 6 mg minus placebo, ITT Population): 0.078 | Odds Ratio (adjusted) (Week 11, 6 mg vs placebo, ITT Population-Excluding Duplicate Patients): 0.690 | Odds Ratio (adjusted) (Week 11, 6 mg vs placebo, ITT Population): 0.68 | CSBM Weekly Responders, n (%) [12]: 291 (33.2) n (%) | Non-Responders, n (%) [12]: 586 (66.8) n (%) | CSBM Weekly Responders, n (%) [13]: 292 (32.7) n (%) | Non-Responders, n (%) [13]: 600 (67.3) n (%) | Difference in Proportions (adjusted) (Week 12, 3 mg minus placebo, All Randomized (includes Duplicate Patients)): 0.068 | Odds Ratio (adjusted) (Week 12, 3 mg vs placebo, All Randomized (includes Duplicate Patients)): 0.711 | CSBM Weekly Responders, n (%) [14]: 145 (30.9) n (%) | Non-Responders, n (%) [14]: 325 (69.1) n (%) | CSBM Weekly Responders, n (%) (Week 12, 3 mg, ITT Population): 140 (31.6) n (%) | Non-Responders, n (%) (Week 12, 3 mg, ITT Population): 303 (68.4) n (%) | CSBM Weekly Responders, n (%) [15]: 140 (32.3) n (%) | Non-Responders, n (%) [15]: 294 (67.7) n (%) | Difference in Proportions (adjusted) (Week 12, 6 mg minus placebo, All Randomized (includes Duplicate Patients)): 0.088 | Odds Ratio (adjusted) (Week 12, 6 mg vs placebo, All Randomized (includes Duplicate Patients)): 0.647 | CSBM Weekly Responders, n (%) [16]: 155 (32.9) n (%) | Non-Responders, n (%) [16]: 316 (67.1) n (%) | CSBM Weekly Responders, n (%) (Week 12, 6 mg, ITT Population): 151 (33.6) n (%) | Non-Responders, n (%) (Week 12, 6 mg, ITT Population): 298 (66.4) n (%) | CSBM Weekly Responders, n (%) [17]: 150 (33.9) n (%) | Non-Responders, n (%) [17]: 293 (66.1) n (%) | CSBM Weekly Responders, n (%) [18]: 300 (31.9) n (%) | Non-Responders, n (%) [18]: 641 (68.1) n (%) | Difference in Proportions (adjusted) (Week 12, 3 mg minus placebo, ITT Population-Excluding Duplicate Patients): 0.066 | Difference in Proportions (adjusted) (Week 12, 3 mg minus placebo, ITT Population): 0.062 | Odds Ratio (adjusted) (Week 12, 3 mg vs placebo, ITT Population-Excluding Duplicate Patients): 0.724 | Odds Ratio (adjusted) (Week 12, 3 mg vs placebo, ITT Population): 0.737 | Difference in Proportions (adjusted) (Week 12, 6 mg minus placebo, ITT Population-Excluding Duplicate Patients): 0.082 | Difference in Proportions (adjusted) (Week 12, 6 mg minus placebo, ITT Population): 0.082 | Odds Ratio (adjusted) (Week 12, 6 mg vs placebo, ITT Population-Excluding Duplicate Patients): 0.673 | Odds Ratio (adjusted) (Week 12, 6 mg vs placebo, ITT Population): 0.672 | CSBM Weekly Responders, n (%) [19]: 290 (33.1) n (%) | Non-Responders, n (%) [19]: 587 (66.9) n (%) | CSBM Weekly Responders, n (%) [20]: 291 (32.6) n (%) | Non-Responders, n (%) [20]: 601 (67.4) n (%)
